Data on ten compounds can be found in PMC8949525, “Essential Elements and Isoflavonoids in the Prevention of Prostate Cancer” (Nutrients, 2022).

Data set [1] relates to S. typhimurium TA1535/pSK1002. The following applies: for decrease in 2AA genotoxicity: range over 2AA 5 mg/L and 1 mg/L. As for the experimental part:
(§1) The umu-test detects the induction of bacterial DNA-damage response, the SOS system, in the strain S. typhimurium TA1535/pSK1002. The test strain carries pSK1002 plasmid, which contains the fusion of umuC, encoding one of SOS response proteins, and lacZ genes. The expression of β-galactosidase protein is fully controlled by umuC gene.
(§2) In the present study, the umu-test was performed in the micro-plate format according to the ISO guideline. The β-galactosidase activity was determined by the degree of ONPG cleavage measured as sample absorbance at 420 nm. The extent of SOS system activation was presented as induction ratio (IR), calculated as the ratio of β-galactosidase activity in the presence of the tested compound(s) to that of negative control. […] The optical density at 600 nm was used to describe the bacteria growth. […] Both measurements were performed with Asys UVM340 Hightech microplate spectrophotometer.
The S9 fraction from rat liver was used for metabolic activation of the tested compounds and the model mutagen. […] The P450 cytochrome level in the isolate was evaluated and the aliquots were stored at −80 °C. The S9 reaction mix was prepared as described by Maron and Ames.
(§3) In order to the establish anti-genotoxic potential of tested compounds, their effects on the action of two model genotoxic agents, 4NQO without the metabolic activation with rat liver S9 fraction and 2AA with metabolic activation, were evaluated. […] Subsequently, the modulation of 4NQO and 2AA genotoxicity by the isoflavones, the elements and their mixtures in previously used concentrations was investigated.

Data set [2] concerns LNCaP prostate cancer cells. The data set can be described thus: LNCaP cell proliferation (bisbenzimide H 33258-DNA fluorescence). The data set is classed as cell-based, human. The settings on record: isoflavone 10 μM, Zn 0.5, Se 0.03, Cu 0.5, Fe 1.5, Ca 40 μg/mL. As for the experimental part: LNCaP cells (passage 12–18) were maintained in DMEM medium supplemented with 10% (v/v) FBS, sodium pyruvate (1 mM), penicillin (100 U/mL) and streptomycin (100 μg/mL) at 37 °C in 5% CO2 humidified atmosphere.
The final concentration of DMSO was 0.05%. It must be noted that DMEM contains 1.8 mM of calcium. […] The cells were then gently washed with 0.9% saline and lysed by brief sonication in deionised water. The cell proliferation was quantified by measurement of bisbenzimide H 33,258–DNA complexes fluorescence on Synergy 4 microplate reader with Gen5 software (BioTek Instruments Inc., 100 Tigan St, Winooski, VT 05404, USA).

In data set [3] the test system is S. typhimurium TA1535/pSK1002. The following applies: for G (growth ratio): −S9, NQO line = genotoxin alone; for anti-genotoxic activity against 4NQO (summary class): cells cover 4NQO […] and 0.05 mg/L, the single + corresponds to […] (Table 2). As to the method: as §1, §2, §3
The next data set concerns LNCaP cells. The data set can be described thus: LNCaP viability/apoptosis, Hoechst 33258 fluorescent imaging. The settings on record: 48 h, Hoechst 33258 stain; genistein, Se, Fe; camptothecin 2 µM positive control. The data set is classed as cell-based, human. As to the method: The images were recorded with the DS-Fi1 camera connected with Eclipse TS100F inverted microscope with Epi-Fluorescent attachment (DAPI filter) and NIS-Elements BR 2.3 software.

The mark [4] stands for this setting: 2AA 1 mg/L, +S9, daidzein or equol 10 μM with or without mineral (Table 6), 2AA line = genotoxin alone.
The mark [5] stands for this setting: 2AA 1 mg/L, +S9, genistein 10 μM and/or mineral added (Table 5), 2AA line = genotoxin alone.
Setting [6] is: 2AA 5 mg/L, +S9, daidzein or equol 10 μM with or without mineral (Table 6), 2AA line = genotoxin alone.
Where [7] appears, read: 2AA 5 mg/L, +S9, genistein 10 μM and/or mineral added (Table 5), 2AA line = genotoxin alone.
The mark [8] stands for this setting: 4NQO 0.05 mg/L, genistein 10 μM and/or mineral added (Table 2).
[9] abbreviates: 4NQO […], genistein 10 μM and/or mineral added (Table 2).
Setting [10] is: −S9, isoflavone 10 μM, minerals Zn 0.5, Se 0.03, Cu 0.5, Fe 1.5, Ca 40 μg/mL.
Setting [11] is: 2AA 1 mg/L, +S9 (second symbol of the cell).
Setting [12] is: 2AA 5 mg/L, +S9 (first symbol of the cell).
[13] abbreviates: inhibition of IR induced by 2AA 1 mg/L, +S9 (Table 5).
The mark [14] stands for this setting: inhibition of IR induced by 2AA 5 mg/L, +S9 (Table 5).

Each structure is given as a SMILES string. Like-named read-outs stand apart in the source and are kept apart here.

In the case of `Nc1ccc2cc3ccccc3cc2c1` [2AA, 2-aminoanthracene, reference compound], the “G (growth ratio)” value is 0.92 ± 0.10 in data set [1] (setting [4]), 1.00 ± 0.07 in data set [1] (setting [5]), 0.86 ± 0.09 in data set [1] (setting [6]) and 1.02 ± 0.08 in data set [1] (setting [7]). For the same compound, the “IR (induction ratio)” value in data set [1] (setting [4]) turned out to be 2.37 ± 0.48; in data set [1] (setting [5]), 2.00 ± 0.53; in data set [1] (setting [6]), 2.91 ± 0.54; in data set [1] (setting [7]), 2.17 ± 0.39.

With `[Ca+2].[Cl-].[Cl-]` [Ca, calcium chloride], the “LNCaP proliferation, % of control” value in data set [2] (48 h incubation) is reported as 80 ± 9%. The “G (growth ratio)” value came out at 1.13 ± 0.08 in data set [3] (setting [8]), 1.11 ± 0.05 in data set [3] (setting [9]), 1.19 ± 0.13 in data set [1] (setting [7]) and 1.11 ± 0.09 in data set [1] (setting [10]). Moreover, the “anti-genotoxic activity against 4NQO (summary class)” value (from here on “anti-genotoxic activity against 4NQO”) in data set [3] is “+ (anti-genotoxicty of used compound(s) ≤ 20%)”.

As for `O=S(=O)([O-])[O-].[Cu+2]` [Cu, copper(II)/cupric sulphate], the “LNCaP proliferation, % of control” value in data set [2] (48 h incubation) is listed as 80 ± 14%. In addition, the “G (growth ratio)” value is 0.98 ± 0.10 in data set [3] (setting [8]), 1.00 ± 0.12 in data set [3] (setting [9]) and 1.11 ± 0.12 in data set [1] (setting [5]). Also, the “anti-genotoxic activity against 2AA (summary class)” value (“anti-genotoxic activity against 2AA” for short) in data set [1] (setting [11]) and in data set [1] (setting [12]) was “++ ++ (anti-genotoxicty of used compound(s) 21–40%)” in each case. Moreover, the entries for the “%Anti-Genotox.” value in data set [1] (setting [13]) and in data set [1] (setting [14]) were 33% and 26%, respectively. For the same compound, in data set [1] (+S9), the “decrease in 2AA genotoxicity” value is 26–33%.

On to `O=S(=O)([O-])[O-].[Fe+2]` [Fe, iron(II) sulphate], for which the “apoptosis / morphology of LNCaP cells” value in the data set on LNCaP cells was “did not induce apoptosis”. The “G (growth ratio)” value came out at 1.10 ± 0.10 in data set [3] (setting [8]); 1.10 ± 0.06 in data set [1] (setting [5]); 0.98 ± 0.10 in data set [1] (+S9, isoflavone 10 μM, minerals Zn 0.5, Se 0.03, Cu 0.5, Fe 1.5, Ca 40 μg/mL). The “anti-genotoxic activity against 4NQO” value in data set [3] is on record as “+ (anti-genotoxicty of used compound(s) ≤ 20%)”. Further, the “anti-genotoxic activity against 2AA” value in data set [1] (setting [11]) is given as “++ (anti-genotoxicty of used compound(s) 21–40%)”; in data set [1] (setting [12]) it was “+ (anti-genotoxicty of used compound(s) ≤ 20%)”. Further, the “%Anti-Genotox.” value is 21% in data set [1] (setting [13]) and 14% in data set [1] (setting [14]). Also, the “decrease in 2AA genotoxicity” value in data set [1] (+S9) was 14–21%.

Take `O=[Se](=O)([O-])[O-].[Na+].[Na+]` [Se, sodium selenate]: the “apoptosis / morphology of LNCaP cells” value with LNCaP cells was “did not induce apoptosis”. For the same compound, the “LNCaP proliferation, % of control” value in data set [2] (48 h incubation) is given as 84 ± 11%. The “G (growth ratio)” value in data set [3] (setting [8]) amounted to 1.10 ± 0.09; in data set [3] (setting [9]) it was 1.11 ± 0.05; in data set [1] (setting [5]), 1.18 ± 0.10; in data set [1] (setting [7]), 1.17 ± 0.12; in data set [1] (setting [10]), 1.14 ± 0.11.

For `O=S(=O)([O-])[O-].[Zn+2]` [Zn, Zinc sulphate], in data set [2] (48 h incubation), the “LNCaP proliferation, % of control” value is reported as 82 ± 10%.

As for `CC[C@@]1(O)C(=O)OCc2c1cc1n(c2=O)Cc2cc3ccccc3nc2-1` [camptothecin, reference compound], in the data set with LNCaP cells, the “apoptosis / morphology of LNCaP cells” value is given as “condensed chromatin or apoptotic nuclei”.

Consider `O=c1c(-c2ccc(O)cc2)coc2cc(O)ccc12` [dai, daidzein], for which the “LNCaP proliferation, % of control” value in data set [2] (24 h incubation) worked out at 84 ± 10%; in data set [2] (48 h incubation), 70 ± 7%.

In the case of `Oc1ccc([C@H]2COc3cc(O)ccc3C2)cc1` [eq, equol], the “LNCaP proliferation, % of control” value in data set [2] (24 h incubation) was 81 ± 9%; in data set [2] (48 h incubation) it was 60 ± 9%. The “G (growth ratio)” value was determined as 0.97 ± 0.26 in data set [3] (4NQO […], daidzein or equol 10 μM with or without mineral (Table 3)); 0.99 ± 0.11 in data set [1] (setting [4]); 1.18 ± 0.33 in data set [1] (setting [10]). For the same compound, the “anti-genotoxic activity against 2AA” value in data set [1] (setting [11]) was “+ (anti-genotoxicty of used compound(s) ≤ 20%)”; in data set [1] (setting [12]), “++ (anti-genotoxicty of used compound(s) 21–40%)”. The “%Anti-Genotox.” value in data set [1] (inhibition of IR induced by 2AA 1 mg/L, +S9 (Table 6)) is 34%; in data set [1] (inhibition of IR induced by 2AA 5 mg/L, +S9 (Table 6)) it was 29%. For the same compound, in data set [1] (+S9), the “decrease in 2AA genotoxicity” value is given as 29–34%.

For `O=c1c(-c2ccc(O)cc2)coc2cc(O)cc(O)c12` [gen, genistein], in the data set on LNCaP cells, the “apoptosis / morphology of LNCaP cells” value is listed as “did not induce apoptosis”. Moreover, the entries for the “LNCaP proliferation, % of control” value in data set [2] (24 h incubation) and in data set [2] (48 h incubation) were 72 ± 9% and 55 ± 9%, respectively. Also, the “G (growth ratio)” value in data set [3] (setting [9]) is 1.12 ± 0.24; in data set [1] (setting [7]), 1.21 ± 0.17; in data set [1] (setting [10]), 1.28 ± 0.35. The “anti-genotoxic activity against 4NQO” value in data set [3] is given as “+ (anti-genotoxicty of used compound(s) ≤ 20%)”. The “anti-genotoxic activity against 2AA” value is “++ (anti-genotoxicty of used compound(s) 21–40%)” in data set [1] (setting [11]) and “+ (anti-genotoxicty of used compound(s) ≤ 20%)” in data set [1] (setting [12]). In addition, the “%Anti-Genotox.” value in data set [1] (setting [13]) stood at 32%; in data set [1] (setting [14]) it was 17%. Further, the “decrease in 2AA genotoxicity” value in data set [1] (+S9) is 17–32%.
